Measured values: paper PMC10683025, “Discovery of a Hydroxylamine-Based Brain-Penetrant EGFR Inhibitor for Metastatic Non-Small-Cell Lung Cancer” (Journal of Medicinal Chemistry, 2023)
Entries after “also recorded” stand apart in the source; their conditions may differ.

Columns and labels:
WNK4 = molecular target: T1, WNK4 (Homo sapiens, UniProt Q96J92); assay: KINOMEScan; format: binding; conditions: WNK4, 1 µM; read-out: Percent Control
T1 construct: purchased Eurofins DiscoverX (KINOMEScan service)
Source text: (§2) Percent control was mapped onto the kinome tree using TREEspot.

[1] = molecular target: T2, ABL1(F317L)-phosphorylated (Homo sapiens, UniProt P00519, F317L); assay: KINOMEScan; format: binding; conditions: read-out: Percent Control
T2 construct: purchased Eurofins DiscoverX
Source text: as §2

ABL1-nonphosphorylated = molecular target: T3, ABL1-nonphosphorylated (Homo sapiens, UniProt P00519); assay: KINOMEScan; format: binding; conditions: read-out: Percent Control
T3 construct: purchased Eurofins DiscoverX
Source text: as §2

AKT3 = molecular target: T4, AKT3 (Homo sapiens, UniProt Q9Y243); assay: KINOMEScan; format: binding; conditions: AKT3, 1 µM; read-out: Percent Control
T4 construct: purchased Eurofins DiscoverX (KINOMEscan)
Source text: as §2

TA1535 = assay: Background bacterial cytotoxicity assay; set-up: species or system Salmonella; key to Flag: A cytotoxicity value of less than 60% is flagged and the compound is considered as toxic (denoted as Cytox.); A hyphen (-) denotes no cytotoxicity at the respective concentration
Experimental: (§1) Compounds were assessed for mutagenicity at the Eurofins Panlabs in 384-well plates using four Salmonella strains: TA98, to probe for frameshift mutation (with quercetin as control), TA100 and TA1535, to probe for base pair insertions/deletions (with streptozotocin as control), and TA1537, to probe for frameshift mutations (with aminacridine as control) as previously described.[78] Each compound was incubated at 37 °C for 96 h at four different concentrations (5, 10, 50, and 100 μM), with each concentration tested using 48 replicates, both with and without rat liver S9 metabolic activation. A concurrent bacterial cytotoxicity assay was run at 0.6, 1.2, 2.5, 5, 10, 25, 50, and 100 μM to rule out false negatives. Bacterial cytotoxicity was expressed as percent of control growth (OD650). Compounds with growth of less than 60% control were flagged and considered bacterial cytotoxic. […] Significances of the positive counts between the treatment and control were determined using a one-tailed Fisher’s exact test.

TA98 = assay: Background bacterial cytotoxicity assay; set-up: species or system Salmonella; key to Flag: A cytotoxicity value of less than 60% is flagged and the compound is considered as toxic (denoted as Cytox.); A hyphen (-) denotes no cytotoxicity at the respective concentration
Experimental: as §1

TA1537 = assay: Background bacterial cytotoxicity assay; set-up: species or system Salmonella; key to Flag: A cytotoxicity value of less than 60% is flagged and the compound is considered as toxic (denoted as Cytox.); A hyphen (-) denotes no cytotoxicity at the respective concentration
Experimental: as §1

YSK4 = molecular target: T5, YSK4 (Homo sapiens, UniProt Q56UN5); assay: KINOMEScan; format: binding; conditions: YSK4, 1 µM; read-out: Percent Control
T5 construct: purchased Eurofins DiscoverX (KINOMEScan service)

AXL = molecular target: T6, AXL (Homo sapiens, UniProt P30530); assay: KINOMEScan; format: binding; conditions: read-out: Percent Control
T6 construct: purchased Eurofins DiscoverX (KINOMEscan)
Source text: as §2

YES = molecular target: T7, YES (Homo sapiens, UniProt P07947); assay: KINOMEScan; format: binding; conditions: read-out: Percent Control
T7 construct: purchased Eurofins DiscoverX (KINOMEScan service)

ERBB2 (HER2) = molecular target: T8, ERBB2 (HER2) (Homo sapiens, UniProt P04626); assay: KINOMEScan; format: binding; conditions: read-out: Percent Control
T8 construct: purchased Eurofins DiscoverX (KINOMEScan service)
Source text: as §2

CYP3A4 = molecular target: T9, CYP3A4 (Homo sapiens, UniProt P08684); assay: CYP450 inhibition in human liver microsomes; format: in vitro ADME; conditions: midazolam
T9 construct: incubated with pooled human liver microsomes (0.5 mg/mL) (BD Gentest); tissue BD Gentest; host or cells: pooled human liver microsomes
Experimental: The activities tested were CYP1A2-mediated phenacetin O-demethylation, CYP2C19-mediated (S)-mephenyotin 4′-hydroxylation, CYP2C9-mediated diclofenac 4′-hydroxylation, CYP2D6-mediated dextromethorphan O-demethylation, and CYP3A4-mediated midazolam 1′-hydroxylation. […] The reactions were initiated by adding NADPH (1 mM final concentration) after a 5 min preincubation, and the assay was run in duplicate (n = 2). Samples were analyzed by ultra-performance liquid chromatography tandem mass spectrometry (UPLC-MS/MS).

CHO-K1 cells = assay: In vitro micronucleus test; format: cell-based, Chinese hamster; conditions: ± rat liver S9; valid to 31 μM + S9 and 8 μM − S9
Experimental: Compound 9 was assessed for genotoxicity by Eurofins Panlabs using the in vitro micronucleus test in Chinese hamster ovary (CHO-K1) cells as previously described.[79] Compound 9 was incubated in a 96-well plate format at varying concentrations (8, 16, 31, 62, 125, 250, 500, and 1000 μM) for 4 h at 37 °C with metabolic activation by rat liver S9 and 24 h at 37 °C without metabolic activation by rat liver S9. High content analysis and fluorescence imaging were used to detect micronuclei and compared against positive controls (cyclophosphamide (ran at 7.2 μM) and mitomycin C (ran at 0.3 μM)). Significances of the positive counts between the treatment and control were determined by one-tailed t test with two-sample equal variance.

[2] = molecular target: T10, ABL1(T315I)-nonphosphorylated (Homo sapiens, UniProt P00519, T315I); assay: KINOMEScan; format: binding; conditions: read-out: Percent Control
T10 construct: purchased Eurofins DiscoverX
Source text: as §2

[3] = molecular target: T11, ABL1(Q252H)-phosphorylated (Homo sapiens, UniProt P00519, Q252H); assay: KINOMEScan; format: binding; conditions: read-out: Percent Control
T11 construct: purchased Eurofins DiscoverX
Source text: as §2

WEE1 = molecular target: T12, WEE1 (Homo sapiens, UniProt P30291); assay: KINOMEScan; format: binding; conditions: WEE1, 1 µM; read-out: Percent Control
T12 construct: purchased Eurofins DiscoverX
Source text: as §2

EGFRwt = molecular target: T13, EGFRwt (Homo sapiens, UniProt P00533); assay: KINOMEScan; format: binding; conditions: read-out: Percent Control
T13 construct: purchased Eurofins DiscoverX (contract assay)
T13 sequence (P00533 25-1210): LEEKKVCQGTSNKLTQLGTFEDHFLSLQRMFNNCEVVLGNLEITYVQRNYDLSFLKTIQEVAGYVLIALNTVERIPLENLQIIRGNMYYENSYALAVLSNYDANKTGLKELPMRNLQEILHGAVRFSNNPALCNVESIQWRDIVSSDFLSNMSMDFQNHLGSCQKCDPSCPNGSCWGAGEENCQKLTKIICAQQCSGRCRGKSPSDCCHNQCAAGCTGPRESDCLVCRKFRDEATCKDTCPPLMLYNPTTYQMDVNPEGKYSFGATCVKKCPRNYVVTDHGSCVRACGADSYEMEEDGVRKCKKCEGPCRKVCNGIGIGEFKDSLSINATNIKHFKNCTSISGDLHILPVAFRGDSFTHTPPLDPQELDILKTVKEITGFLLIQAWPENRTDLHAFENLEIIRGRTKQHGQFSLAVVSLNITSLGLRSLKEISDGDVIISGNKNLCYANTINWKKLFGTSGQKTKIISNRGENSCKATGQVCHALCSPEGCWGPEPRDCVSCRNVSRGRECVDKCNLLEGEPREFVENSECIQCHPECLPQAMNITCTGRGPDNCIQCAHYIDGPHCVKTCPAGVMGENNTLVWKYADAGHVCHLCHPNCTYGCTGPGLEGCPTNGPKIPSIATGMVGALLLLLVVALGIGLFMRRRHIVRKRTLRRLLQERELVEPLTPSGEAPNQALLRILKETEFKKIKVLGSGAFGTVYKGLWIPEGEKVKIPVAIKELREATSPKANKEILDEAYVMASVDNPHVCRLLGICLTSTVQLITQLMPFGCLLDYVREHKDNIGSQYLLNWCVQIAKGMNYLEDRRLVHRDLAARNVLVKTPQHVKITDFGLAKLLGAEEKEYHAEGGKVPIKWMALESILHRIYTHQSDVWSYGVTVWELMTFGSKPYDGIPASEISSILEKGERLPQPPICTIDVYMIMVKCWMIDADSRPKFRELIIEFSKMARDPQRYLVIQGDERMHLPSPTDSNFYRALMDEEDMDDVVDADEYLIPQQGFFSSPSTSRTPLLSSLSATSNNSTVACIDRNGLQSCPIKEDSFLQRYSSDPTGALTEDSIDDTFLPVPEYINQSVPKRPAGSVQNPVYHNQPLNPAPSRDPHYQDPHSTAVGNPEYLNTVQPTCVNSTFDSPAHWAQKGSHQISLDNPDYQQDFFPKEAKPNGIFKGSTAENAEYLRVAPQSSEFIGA
Source text: as §2

T6 sequence (P30530 26-894): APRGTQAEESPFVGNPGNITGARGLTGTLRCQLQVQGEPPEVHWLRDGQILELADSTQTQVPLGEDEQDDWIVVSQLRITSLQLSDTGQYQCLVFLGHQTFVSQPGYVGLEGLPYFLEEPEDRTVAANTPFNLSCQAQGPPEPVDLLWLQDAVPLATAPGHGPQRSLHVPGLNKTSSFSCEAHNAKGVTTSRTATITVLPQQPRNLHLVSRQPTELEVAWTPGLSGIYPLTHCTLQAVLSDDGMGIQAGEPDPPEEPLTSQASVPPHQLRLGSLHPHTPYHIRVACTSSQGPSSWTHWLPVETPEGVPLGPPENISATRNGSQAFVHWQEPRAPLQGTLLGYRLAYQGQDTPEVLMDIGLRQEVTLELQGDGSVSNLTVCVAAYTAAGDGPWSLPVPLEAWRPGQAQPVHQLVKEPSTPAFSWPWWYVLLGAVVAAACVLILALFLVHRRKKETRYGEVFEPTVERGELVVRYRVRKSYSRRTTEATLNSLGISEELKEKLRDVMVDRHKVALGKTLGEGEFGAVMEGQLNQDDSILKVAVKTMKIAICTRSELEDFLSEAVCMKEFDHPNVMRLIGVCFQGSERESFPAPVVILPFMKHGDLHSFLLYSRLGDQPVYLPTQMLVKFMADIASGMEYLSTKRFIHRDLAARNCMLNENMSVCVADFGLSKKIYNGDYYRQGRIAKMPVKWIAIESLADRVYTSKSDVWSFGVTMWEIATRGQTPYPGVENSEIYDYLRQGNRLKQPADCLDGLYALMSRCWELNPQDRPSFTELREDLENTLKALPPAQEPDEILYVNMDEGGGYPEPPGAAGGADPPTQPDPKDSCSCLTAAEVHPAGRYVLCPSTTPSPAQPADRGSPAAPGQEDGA
T1 sequence (Q96J92 whole entry): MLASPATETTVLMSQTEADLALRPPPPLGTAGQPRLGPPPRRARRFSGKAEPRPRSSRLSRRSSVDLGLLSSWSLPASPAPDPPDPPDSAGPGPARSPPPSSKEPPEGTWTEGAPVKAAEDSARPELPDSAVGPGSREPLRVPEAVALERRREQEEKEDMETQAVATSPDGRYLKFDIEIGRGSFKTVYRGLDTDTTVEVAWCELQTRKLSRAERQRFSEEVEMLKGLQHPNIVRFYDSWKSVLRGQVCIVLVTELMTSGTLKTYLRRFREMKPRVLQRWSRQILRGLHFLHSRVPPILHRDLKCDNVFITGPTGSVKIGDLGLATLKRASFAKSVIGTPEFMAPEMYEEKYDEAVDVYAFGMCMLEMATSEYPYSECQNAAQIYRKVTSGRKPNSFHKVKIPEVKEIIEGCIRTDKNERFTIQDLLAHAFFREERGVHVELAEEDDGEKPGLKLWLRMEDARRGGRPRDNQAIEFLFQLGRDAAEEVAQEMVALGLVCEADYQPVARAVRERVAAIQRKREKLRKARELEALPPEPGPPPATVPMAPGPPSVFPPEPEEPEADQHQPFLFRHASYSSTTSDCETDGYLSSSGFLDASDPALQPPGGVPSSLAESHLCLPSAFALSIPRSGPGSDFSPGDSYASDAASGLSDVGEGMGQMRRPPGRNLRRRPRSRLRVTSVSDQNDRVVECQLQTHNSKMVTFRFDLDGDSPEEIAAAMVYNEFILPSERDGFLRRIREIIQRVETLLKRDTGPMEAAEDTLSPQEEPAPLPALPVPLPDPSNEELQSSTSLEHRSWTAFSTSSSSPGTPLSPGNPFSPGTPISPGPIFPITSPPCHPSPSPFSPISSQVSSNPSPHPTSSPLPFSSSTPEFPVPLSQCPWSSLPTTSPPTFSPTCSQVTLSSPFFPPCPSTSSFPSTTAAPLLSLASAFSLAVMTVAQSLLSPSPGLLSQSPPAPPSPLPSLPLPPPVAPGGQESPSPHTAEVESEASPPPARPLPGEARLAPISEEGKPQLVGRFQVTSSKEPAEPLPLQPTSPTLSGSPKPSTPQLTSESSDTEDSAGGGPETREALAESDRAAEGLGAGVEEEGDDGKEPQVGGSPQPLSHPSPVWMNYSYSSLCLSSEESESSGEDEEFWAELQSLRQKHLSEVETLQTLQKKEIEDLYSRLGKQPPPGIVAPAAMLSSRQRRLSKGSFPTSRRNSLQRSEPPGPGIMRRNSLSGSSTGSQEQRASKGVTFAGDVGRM
T4 sequence (Q9Y243 whole entry): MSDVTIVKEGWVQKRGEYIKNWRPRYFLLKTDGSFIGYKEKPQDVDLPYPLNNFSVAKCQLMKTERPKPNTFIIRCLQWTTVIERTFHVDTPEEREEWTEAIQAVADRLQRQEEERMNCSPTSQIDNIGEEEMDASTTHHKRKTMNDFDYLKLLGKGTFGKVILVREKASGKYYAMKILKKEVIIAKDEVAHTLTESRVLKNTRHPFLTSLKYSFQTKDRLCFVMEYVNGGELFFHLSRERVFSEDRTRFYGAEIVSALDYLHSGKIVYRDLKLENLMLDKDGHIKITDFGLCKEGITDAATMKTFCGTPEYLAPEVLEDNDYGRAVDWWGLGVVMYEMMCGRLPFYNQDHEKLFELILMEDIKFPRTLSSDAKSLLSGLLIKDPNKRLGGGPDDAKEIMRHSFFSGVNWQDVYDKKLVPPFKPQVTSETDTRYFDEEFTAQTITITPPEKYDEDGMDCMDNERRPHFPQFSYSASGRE
T7 sequence (P07947 whole entry): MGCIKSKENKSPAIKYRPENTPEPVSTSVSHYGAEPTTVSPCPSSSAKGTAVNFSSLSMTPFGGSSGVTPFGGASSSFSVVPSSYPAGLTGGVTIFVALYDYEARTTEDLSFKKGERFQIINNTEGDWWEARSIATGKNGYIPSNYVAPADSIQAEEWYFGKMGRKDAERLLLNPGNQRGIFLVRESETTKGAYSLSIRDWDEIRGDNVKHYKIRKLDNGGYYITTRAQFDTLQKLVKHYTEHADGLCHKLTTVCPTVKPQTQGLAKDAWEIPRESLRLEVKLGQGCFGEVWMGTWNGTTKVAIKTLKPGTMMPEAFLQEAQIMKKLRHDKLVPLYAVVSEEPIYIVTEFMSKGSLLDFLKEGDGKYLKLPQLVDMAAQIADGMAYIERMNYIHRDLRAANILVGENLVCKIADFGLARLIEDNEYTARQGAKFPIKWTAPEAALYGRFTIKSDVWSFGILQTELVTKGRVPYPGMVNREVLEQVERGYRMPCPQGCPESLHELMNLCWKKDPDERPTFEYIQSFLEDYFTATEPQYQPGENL
T9 sequence (P08684 whole entry): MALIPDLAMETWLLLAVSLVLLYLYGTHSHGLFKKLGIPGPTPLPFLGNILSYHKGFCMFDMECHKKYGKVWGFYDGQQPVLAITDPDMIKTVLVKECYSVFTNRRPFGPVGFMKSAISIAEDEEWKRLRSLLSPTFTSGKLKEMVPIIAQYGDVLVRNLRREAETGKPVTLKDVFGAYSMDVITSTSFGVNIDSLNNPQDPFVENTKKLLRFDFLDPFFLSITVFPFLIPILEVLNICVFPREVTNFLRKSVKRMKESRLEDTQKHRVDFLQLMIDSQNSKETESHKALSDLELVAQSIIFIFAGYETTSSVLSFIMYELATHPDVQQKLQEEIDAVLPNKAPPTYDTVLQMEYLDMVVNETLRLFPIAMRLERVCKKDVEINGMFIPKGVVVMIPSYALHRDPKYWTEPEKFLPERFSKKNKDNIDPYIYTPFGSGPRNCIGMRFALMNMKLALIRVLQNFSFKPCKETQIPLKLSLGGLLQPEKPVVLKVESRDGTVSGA

COc1cc2ncnc(Nc3cccc(Cl)c3F)c2cc1OCCON1CCN(C)CC1 [Compound 9, N-(3-Chloro-2-fluorophenyl)-7-methoxy-6-(2-((4-methylpiperazin-1-yl)oxy)ethoxy)quinazolin-4-amine]
remaining binding at 1 µM (WNK4): 95%
remaining binding at 1 µM [1]: 4%
remaining binding at 1 µM (ABL1-nonphosphorylated): 8.9%
remaining binding at 1 µM (AKT3): 68%
Flag (TA1535; TA1535-S9, 1.0E-04 M): -
Mean % Control (n = 3) (TA1535; TA1535-S9, 1.0E-04 M): 78.4%
Flag (TA1535; TA1535-S9, 1.0E-05 M): -
Mean % Control (n = 3) (TA1535; TA1535-S9, 1.0E-05 M): 99.4%
Flag (TA1535; TA1535-S9, 1.2E-06 M): -
Mean % Control (n = 3) (TA1535; TA1535-S9, 1.2E-06 M): 120.4%
Flag (TA1535; TA1535-S9, 2.5E-05 M): -
Mean % Control (n = 3) (TA1535; TA1535-S9, 2.5E-05 M): 97.6%
Flag (TA1535; TA1535-S9, 2.5E-06 M): -
Mean % Control (n = 3) (TA1535; TA1535-S9, 2.5E-06 M): 101.2%
Flag (TA1535; TA1535-S9, 5.0E-05 M): -
Mean % Control (n = 3) (TA1535; TA1535-S9, 5.0E-05 M): 85.7%
Flag (TA1535; TA1535-S9, 5.0E-06 M): -
Mean % Control (n = 3) (TA1535; TA1535-S9, 5.0E-06 M): 108.1%
Flag (TA1535; TA1535-S9, 6.0E-07 M): -
Mean % Control (n = 3) (TA1535; TA1535-S9, 6.0E-07 M): 98.9%
Flag (TA98; TA98-S9, 1.0E-04 M): -
Mean % Control (n = 3) (TA98; TA98-S9, 1.0E-04 M): 84.2%
Flag (TA98; TA98-S9, 1.0E-05 M): -
Mean % Control (n = 3) (TA98; TA98-S9, 1.0E-05 M): 91.1%
Flag (TA98; TA98-S9, 1.2E-06 M): -
Mean % Control (n = 3) (TA98; TA98-S9, 1.2E-06 M): 92.3%
Flag (TA98; TA98-S9, 2.5E-05 M): -
Mean % Control (n = 3) (TA98; TA98-S9, 2.5E-05 M): 94.8%
Flag (TA98; TA98-S9, 2.5E-06 M): -
Mean % Control (n = 3) (TA98; TA98-S9, 2.5E-06 M): 91.7%
Flag (TA98; TA98-S9, 5.0E-05 M): -
Mean % Control (n = 3) (TA98; TA98-S9, 5.0E-05 M): 87.8%
Flag (TA98; TA98-S9, 5.0E-06 M): -
Mean % Control (n = 3) (TA98; TA98-S9, 5.0E-06 M): 95.7%
Flag (TA98; TA98-S9, 6.0E-07 M): -
Mean % Control (n = 3) (TA98; TA98-S9, 6.0E-07 M): 89.0%
Flag (TA1537; TA1537-S9, 1.0E-04 M): -
Mean % Control (n = 3) (TA1537; TA1537-S9, 1.0E-04 M): 60.3%
Flag (TA1537; TA1537-S9, 1.0E-05 M): -
Mean % Control (n = 3) (TA1537; TA1537-S9, 1.0E-05 M): 88.7%
Flag (TA1537; TA1537-S9, 1.2E-06 M): -
Mean % Control (n = 3) (TA1537; TA1537-S9, 1.2E-06 M): 98.4%
Flag (TA1537; TA1537-S9, 2.5E-05 M): -
Mean % Control (n = 3) (TA1537; TA1537-S9, 2.5E-05 M): 83.8%
Flag (TA1537; TA1537-S9, 2.5E-06 M): -
Mean % Control (n = 3) (TA1537; TA1537-S9, 2.5E-06 M): 90.5%
Flag (TA1537; TA1537-S9, 5.0E-05 M): -
Mean % Control (n = 3) (TA1537; TA1537-S9, 5.0E-05 M): 71.1%
Flag (TA1537; TA1537-S9, 5.0E-06 M): -
Mean % Control (n = 3) (TA1537; TA1537-S9, 5.0E-06 M): 98.8%
Flag (TA1537; TA1537-S9, 6.0E-07 M): -
Mean % Control (n = 3) (TA1537; TA1537-S9, 6.0E-07 M): 101.7%
remaining binding at 1 µM (YSK4): 46%
remaining binding at 1 µM (AXL): 100%
remaining binding at 1 µM (YES): 59%
remaining binding at 1 µM (ERBB2 (HER2)): 0.45%
IC50 (CYP3A4): > 30 µM
In vitro micronucleus (CHO-K1 cells): neither mutagenic nor genotoxic potential; also recorded: Negative
remaining binding at 1 µM [2]: 68%
remaining binding at 1 µM [3]: 8.8%
remaining binding at 1 µM (WEE1): 100%
remaining binding at 1 µM (EGFRwt): 0.3%
